We go through ten compounds from ChEMBL document CHEMBL1201862, “PubChem BioAssay data set” (2004).

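The compound was tested at five concentrations on cells cultured in 96-well plates, with a 48-hour exposure period. Abbreviation: GI50, concentration required for 50% inhibition of growth.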 The source made the active and inactive calls. No stated cut-off is given here; in the data, active = GI50 up to about 1.1 µM and inactive = higher.

Some test systems named below: OVCAR-3; NCI-H23; MCF7; SR; MDA-N; PC-3; ACHN; RXF 393; KM12; HCT-15; SNB-75; COLO 205; CCRF-CEM; UO-31; SK-OV-3; HOP-62; HCC 2998; Malme-3M; IGROV-1; T47D.
What all share (assay): NCI anticancer screen, dose series, 48 h

Take `O=C1CC(Br)c2c(Cl)sc(Cl)c21` (centres undefined): the GI50 is 2.38 µM (inactive) with OVCAR-3; 16.4 µM (inactive) in the assay with NCI-H23; 3.66 µM (inactive) in the assay on MCF7; 3.89 µM (inactive) in the assay on SR; 3.21 µM (inactive) in the assay on MDA-N; 10.8 µM (inactive) in the assay with PC-3. The GI50 in the assay with ACHN was 12.2 µM (inactive); in the assay on RXF 393, 2.39 µM (inactive); with KM12, 6.58 µM (inactive); in the assay with HCT-15, 8.07 µM; with SNB-75, 15.2 µM (inactive); in the assay on COLO 205, 12.1 µM (inactive). Also, the GI50 in the assay with CCRF-CEM was 0.403 µM (active); with UO-31, 4.06 µM (inactive); in the assay with SK-OV-3 it was 16.7 µM (inactive); in the assay on HOP-62 it was 6.01 µM (inactive); in the assay with HCC 2998, 12 µM (inactive); in the assay with Malme-3M it was 12.1 µM (inactive). For the same compound, the GI50 with IGROV-1 is 11.4 µM (inactive); in the assay with T47D, 4.18 µM (inactive).
Take `COc1ccc(CC2NCCc3cc(OC)c(OC)cc32)cc1Br` (centres undefined): the GI50 in the assay on OVCAR-3 is 76.6 µM (inactive); in the assay with NCI-H23, 23 µM (inactive); with MCF7, > 100 µM (inactive); in the assay on SR, 23.9 µM (inactive); in the assay with MDA-N it was 18.2 µM (inactive); in the assay with PC-3 it was 72.4 µM (inactive). For the same compound, the GI50 in the assay with ACHN was 33 µM (inactive); in the assay with RXF 393 it was 15.1 µM (inactive); in the assay with KM12, 21.6 µM (inactive); in the assay on HCT-15 it was over 100 µM; in the assay on SNB-75, 24.3 µM (inactive); in the assay with COLO 205, 16.8 µM (inactive). The GI50 is 29.2 µM (inactive) in the assay with CCRF-CEM; 28.2 µM (inactive) in the assay on UO-31; 96.4 µM (inactive) in the assay with SK-OV-3; 35.6 µM (inactive) in the assay on HOP-62; 18 µM (inactive) in the assay on HCC 2998; 17.3 µM (inactive) in the assay with Malme-3M. The GI50 was 35 µM (inactive) with IGROV-1 and 27.9 µM (inactive) in the assay on T47D.
Take `Clc1ccc(NCNC2Nc3ccccc3N2)cc1Cl`: the GI50 in the assay with OVCAR-3 was 29.3 µM (inactive); in the assay with NCI-H23 it was > 100 µM (inactive); in the assay with MCF7, 0.247 µM (active); in the assay on SR, 37.1 µM (inactive); with MDA-N, 30.8 µM (inactive); in the assay with PC-3 it was 50.1 µM (inactive). Also, the GI50 in the assay with ACHN is 26.6 µM (inactive); with RXF 393, 30.8 µM (inactive); with KM12, 11.9 µM (inactive); in the assay on HCT-15, 31.1 µM; in the assay with SNB-75 it was 19.8 µM (inactive); in the assay with COLO 205, 35.8 µM (inactive). Also, the GI50 in the assay with CCRF-CEM is 25 µM (inactive); in the assay with UO-31, 27.4 µM (inactive); in the assay on SK-OV-3, 48.8 µM (inactive); in the assay with HOP-62, 72.1 µM (inactive); in the assay with HCC 2998, 73.6 µM (inactive); in the assay with Malme-3M, 92.9 µM (inactive). For the same compound, the GI50 in the assay with T47D was 12.6 µM (inactive).
On to `CN(C)[C@H]1CC[C@H]2[C@@H]3CCC4C[C@@H](NC(=O)NC(Cc5ccccc5)c5nccs5)CC[C@]4(C)[C@H]3CC[C@]12C` (some centres undefined), for which the GI50 in the assay with OVCAR-3 is 0.853 µM (active); in the assay with NCI-H23, 1.77 µM (inactive); with MCF7, 0.703 µM (active); with SR, 1.51 µM (inactive); in the assay on MDA-N, 0.35 µM (active); in the assay on PC-3, 0.509 µM (active). For the same compound, the GI50 is 1.76 µM (inactive) in the assay on ACHN; 1.54 µM (inactive) in the assay on RXF 393; 1.12 µM (inactive) in the assay on KM12; 0.687 µM in the assay with HCT-15; 1.75 µM (inactive) with SNB-75; 0.82 µM (active) with COLO 205. In addition, the GI50 with CCRF-CEM was 0.29 µM (active); with UO-31, 1.69 µM (inactive); with SK-OV-3 it was 1.67 µM (inactive); with HOP-62, 0.826 µM (active); in the assay with HCC 2998, 1.75 µM (inactive); in the assay with Malme-3M it was 1.85 µM (inactive). The GI50 is 1.87 µM (inactive) in the assay with IGROV-1 and 1.76 µM (inactive) in the assay with T47D.
For the compound `COc1ccccc1-n1cnc2c1=NC(C)(C)NC=2C(N)=O`, the GI50 in the assay with OVCAR-3, in the assay on NCI-H23, with MCF7, with SR, in the assay with MDA-N and with PC-3 was > 100 µM (inactive) throughout. The GI50 with ACHN is > 100 µM (inactive); with RXF 393, > 100 µM (inactive); with KM12 it was > 100 µM (inactive); in the assay with HCT-15, over 100 µM; with SNB-75, > 100 µM (inactive); in the assay with COLO 205 it was > 100 µM (inactive). Further, the GI50 in the assay with CCRF-CEM, in the assay on SK-OV-3, in the assay with HOP-62, in the assay with HCC 2998, with Malme-3M and in the assay on IGROV-1 was > 100 µM (inactive) in each case. Besides, the GI50 in the assay with T47D was > 100 µM (inactive).
As to `COc1ccccc1C1CC(=O)CC(c2ccccc2OC)C12C(=O)NC(=S)NC2=O` (centres undefined), the GI50 was 80.2 µM (inactive) in the assay with OVCAR-3; > 100 µM (inactive) in the assay with NCI-H23; 46.8 µM (inactive) in the assay on MCF7; 53.7 µM (inactive) in the assay with SR; 18.2 µM (inactive) in the assay with MDA-N; 90.6 µM (inactive) with PC-3. For the same compound, the GI50 with ACHN was 28.2 µM (inactive); in the assay on RXF 393 it was 59.4 µM (inactive); in the assay with KM12, 62.8 µM (inactive); with HCT-15, 42.5 µM; in the assay on SNB-75, 56 µM (inactive); in the assay with COLO 205 it was 32.6 µM (inactive). The GI50 is 46.6 µM (inactive) with CCRF-CEM; 87.9 µM (inactive) with UO-31; > 100 µM (inactive) with HOP-62; 62.7 µM (inactive) with HCC 2998; 79.6 µM (inactive) with Malme-3M; 68.9 µM (inactive) with IGROV-1. In addition, in the assay with T47D, the GI50 was 58.5 µM (inactive).
Turning to `CC(=O)c1cccc(NC(=O)C(=O)NNc2nnc(S)n2N)c1`, the GI50 with OVCAR-3 was 3.99 µM (inactive); in the assay with NCI-H23, 3.18 µM (inactive); in the assay with MCF7 it was 4.27 µM (inactive); in the assay on SR, 3.61 µM (inactive); in the assay with MDA-N, 2.27 µM (inactive); with PC-3 it was 3.27 µM (inactive). For the same compound, the GI50 is 7.33 µM (inactive) in the assay on ACHN; 10.4 µM (inactive) in the assay on RXF 393; 11.1 µM (inactive) with KM12; 4.9 µM in the assay with HCT-15; 7.29 µM (inactive) with SNB-75; 14.2 µM (inactive) in the assay on COLO 205. The GI50 with CCRF-CEM is 3.48 µM (inactive); in the assay with UO-31 it was 9.16 µM (inactive); in the assay with SK-OV-3, 20.5 µM (inactive); in the assay with HOP-62, 12.1 µM (inactive); in the assay on HCC 2998, 14.1 µM (inactive); in the assay on Malme-3M, 1.93 µM (inactive). The GI50 in the assay on IGROV-1 was 8.61 µM (inactive); in the assay with T47D it was 3.5 µM (inactive).
Turning to `COCn1c2ccc(OC(C)=O)cc2c2c(=O)oc(C)nc21`, the GI50 with NCI-H23, with MCF7, with SR, with MDA-N, with PC-3 and in the assay with ACHN was > 100 µM (inactive) each time. Further, the GI50 in the assay on RXF 393 was > 100 µM (inactive); in the assay on KM12, > 100 µM (inactive); in the assay with HCT-15, over 100 µM; in the assay with SNB-75 it was > 100 µM (inactive); with COLO 205, > 100 µM (inactive); in the assay on CCRF-CEM, > 100 µM (inactive). In addition, the GI50 in the assay with UO-31, with SK-OV-3, in the assay with HOP-62, in the assay on HCC 2998, in the assay with Malme-3M and with IGROV-1 was > 100 µM (inactive) throughout. The GI50 with T47D is > 100 µM (inactive).
With `CC1(C)[C@@H]2C[C@H]1c1cnc(-c3ccccn3)cc1C2CCCCC[C@@H]1c2cc(-c3ccccn3)ncc2[C@@H]2C[C@H]1C2(C)C` (some centres undefined), the GI50 is 0.404 µM (active) with OVCAR-3; 1.82 µM (inactive) in the assay with NCI-H23; 0.809 µM (active) in the assay on MCF7; 0.653 µM (active) in the assay on SR; 1.36 µM (inactive) with MDA-N; 1.32 µM (inactive) in the assay with PC-3. Moreover, the GI50 in the assay with ACHN was 1.82 µM (inactive); in the assay with RXF 393, 0.745 µM (active); in the assay on KM12 it was 1.48 µM (inactive); with HCT-15, 5.9 µM; in the assay with SNB-75 it was 0.74 µM (active); in the assay on COLO 205, 0.578 µM (active). In addition, the GI50 in the assay on CCRF-CEM is 0.502 µM (active); with UO-31 it was 0.853 µM (active); in the assay with HOP-62 it was 1.42 µM (inactive); in the assay on HCC 2998, 7.1 µM (inactive); with Malme-3M, 3.19 µM (inactive); in the assay with IGROV-1 it was 1.63 µM (inactive). Further, the GI50 in the assay with T47D was 1.69 µM (inactive).
Regarding `CN(C)CCNc1ccc2ncnc3c2c1C(=O)c1ccccc1-3`, the GI50 with OVCAR-3 is 0.556 µM (active); with NCI-H23, 0.655 µM (active); with MCF7 it was 0.406 µM (active); in the assay on SR, 0.0824 µM (active); in the assay with MDA-N it was 0.456 µM (active); in the assay on PC-3 it was 0.519 µM (active). Also, the GI50 in the assay on ACHN is 0.281 µM (active); in the assay with RXF 393, 0.444 µM (active); in the assay with KM12 it was 0.393 µM (active); in the assay on HCT-15, 0.323 µM; in the assay with SNB-75, 0.446 µM (active); in the assay with COLO 205, 0.433 µM (active). Moreover, the GI50 in the assay on CCRF-CEM was 0.143 µM (active); in the assay on UO-31 it was 0.468 µM (active); in the assay on SK-OV-3, 1.81 µM (inactive); in the assay on HOP-62, 0.242 µM (active); with HCC 2998, 0.348 µM (active); in the assay on Malme-3M, 0.166 µM (active). In the assay on T47D, the GI50 was 0.619 µM (active).
